Data from patent publication US20200009135A1, “THERAPEUTIC APPLICATIONS OF MALT1 INHIBITORS” (MEDIVIR AB, priority 2017, published 2020).

Columns and labels:
[1] = test system: IL-2 expression in Jurkat (E6-1) cells; test: IL-2 expression assay (down-stream MALT1 activity, Jurkat E6-1); assay type: cell-based; conditions: Homo sapiens; Jurkat E6-1, PMA/Ionomycin stimulation, 24 hours
Experimental: Down-stream MALT1 activity was measured by PMA/lonomycin-induced expression of IL-2 in Jurkat (E6-1) cells. Compounds were distributed in a 96 well plate, 8-point concentration series, 1:3 dilution. Jurkat clone E6-1, 4×10^4 cells/well, were added, and stimulated by PMA/lonomycin (1:500 dilution) for 24 hours at 37° C. Measurement was performed using a MesoScale Sector S600 with the Human IL-2 Tissue Culture kit according to the manufacturers recommendation.

[2] = test system: CMV-specific (NLV+) CD8+ Teff cells expressing IFNγ; test: Human whole blood loop assay with CMV lysate; assay type: cell-based; conditions: 4 μM, 6 hours, alone and in combination with CMV lysate 1 μg/ml
Experimental: Each blood loop contained 2 mL of freshly taken human whole blood from HLA-A2+ and CMV+ donors.
Freshly drawn whole blood from healthy volunteers (2 mL) in a tube was incubated under rotation at 37° C. for 6 hours. […] After 2 hours Brefeldin-A was added to allow intra-cellular analysis of cytokines (IFNγ and TNFα). Antigen-specific CD8+ T-cells were identified by fluorescence-conjugated tetrameric complexes of HLA-A2 molecules loaded with the NLV peptide epitope ([…]) of CMV pp65,

[3] = test system: MB49 mouse bladder cancer; test: MB49 mouse bladder cancer model, Treg and Teff cells by flow cytometry; assay type: in vivo; conditions: C57BL/6 mice
Experimental: Evaluation of Treg and Teff cell numbers was performed by flow cytometry. From a tumour sample (resected piece or biopsy), tumour cells and TILs are dispersed into single cell suspension. Cells are then washed with PBS and stained by antibodies. Samples were stained with antibodies to identify T-cell subpopulations; CD3-BV421 (Biolegend 100228), CD8-FITC (Biolegend 100706), CD4-PE (Biolegend 116005), CD25-PerCP Cy5.5 (Biolegend 101912, clone 3C7), for 15 minutes at room temperature, followed by addition of erythrocyte lysis buffer (cat no. 349202, BD BioSciences, Franklin Lakes, N.J., USA) for 8 minutes. Cells were permeabilized with FoxP3 fix/Perm (cat no. 421401, Biolegend San Diego, Calif., USA), washed with FoxP3 Perm buffer (Cat no. 421402, Biolegend) and stained with an Alexa Fluor® 647 labelled FoxP3 antibody (Cat no. 320013, Biolegend) according to the manufacturer's instructions. The cells were washed twice in PBS with 1% BSA and analyzed on a FACSCanto II (BD Biosciences). Data analysis was performed using FlowJo software (TreeStar, Ashland, Oreg., USA). For intracellular staining of cytokines, inclusion of transport inhibitors e.g. Monensin or Brefeldin A.
The murine bladder urothelial carcinoma cell line Mouse Bladder (MB)-49 is a C57BL/6-derived cell line cultured at 37 C and 5% CO2 in DMEM+GlutaMax supplemented with 10% FBS, 0.1 mM sodium pyruvate, 100 U/ml Penicillin-Streptomycin. For determining the effects of MALT1 inhibitor on the presence of T-effector and T-regulatory cells in vivo, 3×10^5 MB49 cells were injected s.c. on the right flank of female C57BL/6 mice. […] As reference 200 μg of anti-CD25 antibody (clone PC61) in 100 μL PBS was administered i.v. on day 8 and 11. The levels of Treg and Teff cells were analyzed by flow cytometry in the tumour (T) and in tumour-draining lymph nodes (TDLN) on day 12.

[4] = test system: panel of human cancer cell lines; test: Human cancer cell line panel (Oncolead), GI50, 72 hours; assay type: cell-based
[5] = p.o. once daily day 8-11, two doses, analysed day 12

Structure (SMILES): CO[C@@H](C)c1c(NC(=O)Nc2cnc(-n3nccn3)c(Cl)c2)cnc2cc(Cl)nn12 [Example 2, (S)-1-(5-chloro-6-(2H-1,2,3-triazol-2-yl)pyridin-3-yl)-3-(2-chloro-7-(1-methoxyethyl)pyrazolo[1,5-a]pyrimidin-6-yl)urea]
- IC50 [1]: 0.01 µM
- activated antigen-specific IFNγ+CD8+ T cells [2]: increase
- amount of CD8/CD25 double positive cells (Teff) in TDLN ([3]; p.o. once daily day 8-11, analysed day 12): not reduced
- percentage of FOXP3 positive cells (Treg) out of CD3/CD4 double positive cells in tumour [3, 5]: reduced, in a dose-dependent manner
- percentage of FOXP3 positive cells (Treg) out of CD3/CD4 double positive cells in tumour-draining lymph nodes [3, 5]: reduced, in a dose-dependent manner
- antiproliferative effect on the majority of cell lines tested ([4]; 81 solid and 12 hematological cancer cell lines, 50 μM to 0.05 nM): essentially no antiproliferative effect
- GI50 ([4]; Homo sapiens, WSU-NHL cell line, not confirmed in follow-up assay): < 1000 nM
